The NIST ThermoML archive (doi:10.1021/je060271a)
± gives the expanded uncertainty stated by the source.

Settings: 303.15 K, Liquid, Vibrating tube method

With CCCCCCCC(=O)OCC(COC(=O)CCCCCCC)(COC(=O)CCCCCCC)COC(=O)CCCCCCC [pentaerythritol tetraoctanoate] the mass density (2156.4 kPa) was 956.7 ± 1.2 kg/m3, the mass density (2179.1 kPa) was 956.6 ± 1.2 kg/m3 and the mass density (2206.4 kPa) was 956.8 ± 1.2 kg/m3. It also gave a mass density (2234.6 kPa) of 956.8 ± 1.2 kg/m3, a mass density (2258 kPa) of 956.7 ± 1.2 kg/m3 and a mass density (2287 kPa) of 956.8 ± 1.2 kg/m3. For the same compound, the mass density (2316.5 kPa) was 956.9 ± 1.2 kg/m3, the mass density (2341.8 kPa) was 956.8 ± 1.2 kg/m3 and the mass density (2372.4 kPa) was 956.7 ± 1.2 kg/m3. It also gave a mass density (2402.9 kPa) of 957 ± 1.2 kg/m3, a mass density (2429.4 kPa) of 956.7 ± 1.2 kg/m3 and a mass density (2462 kPa) of 956.8 ± 1.2 kg/m3. It also gave a mass density (2495.8 kPa) of 956.9 ± 1.2 kg/m3, a mass density (2524.1 kPa) of 957 ± 1.2 kg/m3 and a mass density (2559.1 kPa) of 956.9 ± 1.2 kg/m3. It also gave a mass density (2596.2 kPa) of 957.1 ± 1.2 kg/m3, a mass density (2642 kPa) of 957 ± 1.2 kg/m3 and a mass density (2696.3 kPa) of 957.1 ± 1.2 kg/m3. It also gave a mass density (2784.7 kPa) of 957.1 ± 1.2 kg/m3, a mass density (2865.2 kPa) of 957.2 ± 1.2 kg/m3 and a mass density (2954.3 kPa) of 957.3 ± 1.2 kg/m3. The mass density (3081.5 kPa) was 957.2 ± 1.2 kg/m3, the mass density (3108.7 kPa) was 957.4 ± 1.2 kg/m3 and the mass density (3121.2 kPa) was 957.4 ± 1.2 kg/m3. For the same compound, the mass density (3136.3 kPa) was 957.4 ± 1.2 kg/m3, the mass density (3151.3 kPa) was 957.4 ± 1.2 kg/m3 and the mass density (3164 kPa) was 957.4 ± 1.2 kg/m3. For the same compound, the mass density (3179.1 kPa) was 957.5 ± 1.2 kg/m3, the mass density (3193.3 kPa) was 957.4 ± 1.2 kg/m3 and the mass density (3204.5 kPa) was 957.4 ± 1.2 kg/m3. For the same compound, the mass density (3218.1 kPa) was 957.4 ± 1.2 kg/m3, the mass density (3229.7 kPa) was 957.4 ± 1.2 kg/m3 and the mass density (3242.8 kPa) was 957.4 ± 1.2 kg/m3. The mass density (3256.4 kPa) was 957.5 ± 1.2 kg/m3, the mass density (3270.2 kPa) was 957.4 ± 1.2 kg/m3 and the mass density (3284.1 kPa) was 957.5 ± 1.2 kg/m3. The mass density (3580.6 kPa) was 957.6 ± 1.2 kg/m3, the mass density (3702.5 kPa) was 957.6 ± 1.2 kg/m3 and the mass density (3720 kPa) was 957.5 ± 1.2 kg/m3. For the same compound, the mass density (3734.9 kPa) was 957.7 ± 1.2 kg/m3, the mass density (3753.7 kPa) was 957.7 ± 1.2 kg/m3 and the mass density (3901.1 kPa) was 957.9 ± 1.2 kg/m3. For the same compound, the mass density (4311.5 kPa) was 958.1 ± 1.2 kg/m3, the mass density (4330 kPa) was 958 ± 1.2 kg/m3 and the mass density (4352.8 kPa) was 958.1 ± 1.2 kg/m3. It also gave a mass density (4371.7 kPa) of 958.1 ± 1.2 kg/m3, a mass density (4395.1 kPa) of 958.1 ± 1.2 kg/m3 and a mass density (4412.6 kPa) of 958.1 ± 1.2 kg/m3. For the same compound, the mass density (4416.5 kPa) was 958.2 ± 1.2 kg/m3, the mass density (4419.7 kPa) was 958.2 ± 1.2 kg/m3 and the mass density (4422.8 kPa) was 958.2 ± 1.2 kg/m3. The mass density (4423.3 kPa) was 958.2 ± 1.2 kg/m3, the mass density (4424.2 kPa) was 958.1 ± 1.2 kg/m3 and the mass density (4426.8 kPa) was 958.2 ± 1.2 kg/m3. It also gave a mass density (4435.8 kPa) of 958.1 ± 1.2 kg/m3, a mass density (4446.7 kPa) of 958.3 ± 1.2 kg/m3 and a mass density (4455.8 kPa) of 958.2 ± 1.2 kg/m3. The mass density (4466.6 kPa) was 958 ± 1.2 kg/m3, the mass density (4475.6 kPa) was 958.1 ± 1.2 kg/m3 and the mass density (4486.7 kPa) was 958.2 ± 1.2 kg/m3. It also gave a mass density (4542.6 kPa) of 958.3 ± 1.2 kg/m3, a mass density (4584.4 kPa) of 958.1 ± 1.2 kg/m3 and a mass density (4608.3 kPa) of 958.4 ± 1.2 kg/m3. It also gave a mass density (4628.1 kPa) of 958.3 ± 1.2 kg/m3, a mass density (4651.8 kPa) of 958.3 ± 1.2 kg/m3 and a mass density (4675.6 kPa) of 958.3 ± 1.2 kg/m3. The mass density (4696.6 kPa) was 958.2 ± 1.2 kg/m3, the mass density (4717 kPa) was 958.3 ± 1.2 kg/m3 and the mass density (4742.3 kPa) was 958.4 ± 1.2 kg/m3. The mass density (4763.2 kPa) was 958.3 ± 1.2 kg/m3, the mass density (4788.5 kPa) was 958.3 ± 1.2 kg/m3 and the mass density (4809.9 kPa) was 958.5 ± 1.2 kg/m3. It also gave a mass density (4835.7 kPa) of 958.4 ± 1.2 kg/m3, a mass density (4857.2 kPa) of 958.4 ± 1.2 kg/m3 and a mass density (4981.8 kPa) of 958.4 ± 1.2 kg/m3. For the same compound, the mass density (5009.3 kPa) was 958.4 ± 1.2 kg/m3, the mass density (5033 kPa) was 958.5 ± 1.2 kg/m3 and the mass density (5062 kPa) was 958.5 ± 1.2 kg/m3. The mass density (5085.4 kPa) was 958.5 ± 1.2 kg/m3, the mass density (5113.6 kPa) was 958.5 ± 1.2 kg/m3 and the mass density (5138.1 kPa) was 958.6 ± 1.2 kg/m3. It also gave a mass density (5167.4 kPa) of 958.5 ± 1.2 kg/m3, a mass density (5197.3 kPa) of 958.7 ± 1.2 kg/m3 and a mass density (5221.9 kPa) of 958.5 ± 1.2 kg/m3. For the same compound, the mass density (5251.8 kPa) was 958.7 ± 1.2 kg/m3, the mass density (5277.7 kPa) was 958.7 ± 1.2 kg/m3 and the mass density (5335.3 kPa) was 958.6 ± 1.2 kg/m3. It also gave a mass density (5367.5 kPa) of 958.6 ± 1.2 kg/m3, a mass density (5396 kPa) of 958.7 ± 1.2 kg/m3 and a mass density (5428.7 kPa) of 958.7 ± 1.2 kg/m3. It also gave a mass density (5455.7 kPa) of 958.7 ± 1.2 kg/m3, a mass density (5489.1 kPa) of 958.8 ± 1.2 kg/m3 and a mass density (5517.5 kPa) of 958.8 ± 1.2 kg/m3. It also gave a mass density (5552 kPa) of 958.7 ± 1.2 kg/m3, a mass density (5581.6 kPa) of 958.8 ± 1.2 kg/m3 and a mass density (5767 kPa) of 959 ± 1.2 kg/m3. For the same compound, the mass density (5794 kPa) was 959.1 ± 1.2 kg/m3, the mass density (5810.8 kPa) was 959 ± 1.2 kg/m3 and the mass density (5827.4 kPa) was 959 ± 1.2 kg/m3. It also gave a mass density (5847.7 kPa) of 959 ± 1.2 kg/m3, a mass density (5864.7 kPa) of 959.1 ± 1.2 kg/m3 and a mass density (5884.7 kPa) of 959.1 ± 1.2 kg/m3. For the same compound, the mass density (5905.3 kPa) was 959.1 ± 1.2 kg/m3, the mass density (5922.3 kPa) was 959.1 ± 1.2 kg/m3 and the mass density (5943.2 kPa) was 959 ± 1.2 kg/m3. The mass density (5960.8 kPa) was 959.2 ± 1.2 kg/m3, the mass density (5981.9 kPa) was 959.1 ± 1.2 kg/m3 and the mass density (5999.7 kPa) was 959.2 ± 1.2 kg/m3. For the same compound, the mass density (6021.7 kPa) was 959.2 ± 1.2 kg/m3, the mass density (6040 kPa) was 959.2 ± 1.2 kg/m3 and the mass density (6060.9 kPa) was 959.1 ± 1.2 kg/m3. The mass density (6079.2 kPa) was 959.1 ± 1.2 kg/m3, the mass density (6100.3 kPa) was 959.1 ± 1.2 kg/m3 and the mass density (6121.9 kPa) was 959.2 ± 1.2 kg/m3. For the same compound, the mass density (6140.7 kPa) was 959.2 ± 1.2 kg/m3, the mass density (6163.6 kPa) was 959.3 ± 1.2 kg/m3 and the mass density (6182 kPa) was 959.2 ± 1.2 kg/m3. It also gave a mass density (6204.5 kPa) of 959.3 ± 1.2 kg/m3, a mass density (6223.9 kPa) of 959.3 ± 1.2 kg/m3 and a mass density (6247 kPa) of 959.2 ± 1.2 kg/m3. It also gave a mass density (6267.1 kPa) of 959.2 ± 1.2 kg/m3, a mass density (6290.2 kPa) of 959.3 ± 1.2 kg/m3 and a mass density (6308.9 kPa) of 959.3 ± 1.2 kg/m3. For the same compound, the mass density (6332.4 kPa) was 959.2 ± 1.2 kg/m3, the mass density (6355.9 kPa) was 959.3 ± 1.2 kg/m3 and the mass density (6375.8 kPa) was 959.2 ± 1.2 kg/m3. It also gave a mass density (6400.1 kPa) of 959.3 ± 1.2 kg/m3, a mass density (6445.1 kPa) of 959.4 ± 1.2 kg/m3 and a mass density (6470.5 kPa) of 959.3 ± 1.2 kg/m3. The mass density (6490.8 kPa) was 959.3 ± 1.2 kg/m3, the mass density (6583.6 kPa) was 959.4 ± 1.2 kg/m3 and the mass density (6610.2 kPa) was 959.4 ± 1.2 kg/m3. The mass density (6631.8 kPa) was 959.5 ± 1.2 kg/m3, the mass density (6658.3 kPa) was 959.5 ± 1.2 kg/m3 and the mass density (6679.2 kPa) was 959.5 ± 1.2 kg/m3. It also gave a mass density (6705.9 kPa) of 959.6 ± 1.2 kg/m3, a mass density (6728.4 kPa) of 959.5 ± 1.2 kg/m3 and a mass density (6755.2 kPa) of 959.5 ± 1.2 kg/m3. For the same compound, the mass density (6783 kPa) was 959.5 ± 1.2 kg/m3, the mass density (6805.9 kPa) was 959.6 ± 1.2 kg/m3 and the mass density (6833.9 kPa) was 959.6 ± 1.2 kg/m3. It also gave a mass density (6861.7 kPa) of 959.7 ± 1.2 kg/m3, a mass density (6913.4 kPa) of 959.7 ± 1.2 kg/m3 and a mass density (7101.4 kPa) of 959.8 ± 1.2 kg/m3. It also gave a mass density (7125.9 kPa) of 959.9 ± 1.2 kg/m3, a mass density (7156.7 kPa) of 959.7 ± 1.2 kg/m3 and a mass density (7182.6 kPa) of 959.8 ± 1.2 kg/m3. It also gave a mass density (7214 kPa) of 959.8 ± 1.2 kg/m3.
